Reference: patent US12503426B2, “Synthetic derivatives of oleoyl-lysophosphatidylinositol (oleoyl-LPI) and uses thereof” (LIPOVEXA SRL, priority 2017, dated 2025)

What was measured:
[1] = test system: Glutag and NCI-H761 cells; assay: Dose response of GLP-1 release at different glucose concentrations; assay type: cell-based
Protocol: Panels A and B show results of dose response of GLP-1 release in different glucose concentration of 5 mM (panel A) and 10 mM (panel B). The dose response of GLP-1 released was normalised of number of cells measured in parallel. Glutag and […] cells were incubated with vehicle alone, oleoyl-LPI, OEA, LPC forskolin (10 μM) and PMA (1 μM) as positive control for 2 hours. Results were normalised as percentage of cell treated with vehicle (control). For panels A and B data are shown as means±SEM of n=3 from independent experiments performed in duplicates. Student t-test: *p<0.05, **P<0.01. Panel C show results of dose response of GLP-1 release in a glucose concentration of 20 mM.
(§1) Approximately 80,000 Glutag cells were plated in poly-L-lysine-coated 24-well culture plates and grown to about 80% confluence. NCI-H716 cells were seeded on growth factor reduced Matrigel™ (Becton Dickinson, Bedford, MA) in DMEM medium, supplemented with 10% FBS the day before the experiment. For NCI-H716 cells, approximately 25,000 cells were needed for this secretion experiment in order to have good stimulation with lower basal GLP-1 secretion. In brief, Glutag and NCI-H716 cells were washed twice and then incubated for 2 h with FBS-free DMEM containing 1% (M:C) alone (negative control), 10 μM forskolin as positive control (Sigma-Aldrich), or with different concentrations of Oleoyl-LPI. M:C was used as a solvent to prepare stock solutions of fatty acid derivatives and inhibitors. For secretion experiments, medium and cells were collected separately.
To determine the effect of glucose in oleoyl-LPI induced GLP-1 secretion, the inventors conducted dose-response experiment in the presence of 5 mM and 10 mM glucose in the secretion medium with the results outlined in FIG. 2A and FIG. 2B.

[2] = test system: colonic cells of the GI tract obtained from guinea pig; assay: Ex vivo GLP-1 biosynthesis and secretion, guinea pig GI tract cells; assay type: cell-based; settings: Cavia porcellus; ex vivo incubation 2 hours, quadruplicates
Protocol: To test for this, a pregnant guinea pig was anesthetized with isoflurane and sacrificed via intra-cardial injection of pentobarbital. Colon and rectum were quickly collected and intraluminal content washed out with ice-cold HBSS. After a thorough cleansing from the faecal material, and gentle scraping of the internal mucosa, the tissue was minced into 3 to 5-millimetre pieces and resuspended into 50 ml of ice cold HBSS. Pellet was spun down and washed again in 50 ml of ice-cold HBSS. Supernatant was carefully removed, and the epithelial fragments were then resuspended for 30 minutes at 37° C. into a 5 ml solution of HEPES 25 mM, collagenase-P 1 mg/ml in HBSS, pH 7.4 at 37° C.
The tissue was then pelleted and resuspended further for about 30 to 40 additional minutes at 37° C. within a 10 ml solution of 1 mg/ml collagenase-P as above.
After the digestion, about 40 ml of pre-warmed DMEM complete media was added (FBS 10%, glucose 4.5 g/L, glutamine 4 mM, sodium pyruvate 1 mM, HEPES 25 mM, sodium bicarbonate 3.7 g/L, Pen/Strep 1× and Ciprofloxacin 10 μg/ml pH 7.4 at 37° C.). Crypts and individual cells were isolated with a […] nylon strainer, spun down at 200 g for 5 minutes, resuspended into 10 ml of DMEM complete media and plated into 20 wells of a 24-well plate coated with a 3D gel of 3 mg/ml Matrigel (BD, Biosciences, Oxford, UK). After one day of incubation at 37° C. 5% CO2 in a humidified incubator, cells were washed with 500 μl of warm HBSS, and treated with 250 μl DMEM serum free (Complete medium without FBS) additioned with KR-62436 10 μg/ml and individually the following drugs or compounds: Forskolin and IBMX (20 μM each), oleoyl-LPI, and the two oleoyl-LPI analogs and/or derivatives ps297b (prepared as described in example 13) and ps316a (prepared as described in example 22) were all tested in quadruplicate at 20 μM.
After a 2-hour long incubation at 37 C 5% CO2, the supernatants were collected on ice, and quickly stored at […]. Active GLP-1 levels (7-37 amide and 7-36) were quantified on 50 μl of supernatant with an ELISA commercial kit (EMD Millipore). DMSO was used as a negative control, the combination of Forskolin and IBMX was included as positive control activators GLP-1. GLP-1 levels measured were standardized against the DMSO control.
The EC50 levels each one of oleoyl-LPI, compound ps297b and compound ps316a were also measured in quadruplicates at the conclusion of the 2 hour incubation. Guinea pig cells obtained as described above were also incubated with […] in quadruplicates and subjected to 2-hour long incubation at 37 C 5% CO2 as described above and EC50 levels measured.

human GPR119 = biological target: T1, human GPR119 (Homo sapiens, UniProt Q8TDV5); assay: cAMP assay in GPR119 transfected COS-7 cells; assay type: cell-based; settings: COS-7 cells expressing human GPR119, agonists 30 min; read-out: EC50, production of cAMP
T1 construct: expressed in transfected cells; host or cells: COS-7 cells, calcium phosphate transfection
T1 sequence (Q8TDV5 1-335): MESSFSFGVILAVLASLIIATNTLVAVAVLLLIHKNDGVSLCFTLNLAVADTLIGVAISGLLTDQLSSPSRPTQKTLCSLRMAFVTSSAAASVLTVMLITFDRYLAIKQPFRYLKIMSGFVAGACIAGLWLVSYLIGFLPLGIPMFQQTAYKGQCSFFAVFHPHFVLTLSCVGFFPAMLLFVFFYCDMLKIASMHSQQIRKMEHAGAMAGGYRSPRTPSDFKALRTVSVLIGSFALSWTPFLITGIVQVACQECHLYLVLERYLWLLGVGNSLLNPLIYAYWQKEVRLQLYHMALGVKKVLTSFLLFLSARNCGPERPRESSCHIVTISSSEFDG
Protocol: COS-7 cells were cultured in Dulbecco's modified Eagle medium (DMEM) 1885 supplemented with 10% FBS, […] L-glutamine and 180 IU/ml penicillin+[…] streptomycin (Pen Strep) (Life Technologies, CA, USA) at 37° C. and 10% CO2. The COS-7 cells were transiently transfected with GPR119 or pcDNA by the calcium phosphate transfection method for 5 hours in 37° C., 10% CO2 as described by Kissow H, Hartmann B, Hoist J J, Viby N E, Hansen L S, Rosenkilde M M, Hare K J, Poulsen S S. Regul Pept. 2012. Vol: 179(1-3), pp 91-100; the disclosure of which is incorporated herein in its entirety by way of reference.
COS-7 cells were transfected with about 40 μg GPR119 DNA or pcDNA3 per […] flask. One day after transfection, the cells were seeded out (about 35,000 cell/well) in a 96 well white plate (Perkin Elmer, Massachusetts, USA). The cells were washed twice the following day and incubated for 30 min, at 37° C. with HBS and 1 mM IBMX (Sigma Aldrich, USA). Agonists were added for 30 min in the assay medium. The Hithunter® cAMP XS+ (DiscoveRx, Fremont, USA) was carried out by following the manufacturer's instructions.
Accordingly, the work outlined in this example evaluates whether activation of GPR119 by oleoyl-LPI in enteroendocrine L cell affect the proglucagon gene expression by monitoring the CREB activity. […]

NCI-H716 cells = assay: GLP-1 secretion by NCI-H716 cells (Examples 2-8); assay type: cell-based, human; settings: NCI-H716 cells, inhibitor 1 hour before oleoyl-LPI (PD98059 50 μM; H89 10 μM)
Protocol: NCI-H716 cells were maintained in 75 cm^2 tissue culture flasks (Corning) in RPMI 1640 media containing 2.0 mM L-glutamine, 1.5 g/L sodium bicarbonate, 10 mM HEPES buffer, 1.0 mM sodium pyruvate, and 4.5 g/L glucose and supplemented with 10% FBS at a 37° C. and 5% CO2. When plating for experiment, cell adhesion and endocrine differentiation were initiated by growing cells in dishes coated with growth factor reduced Matrigel diluted at the ratio of 1:2 (Becton Dickinson, Bedford, MA) in high-glucose DMEM, 10% FBS, 2 mM glutamine, 100 IU/ml penicillin, and 100 μg/ml streptomycin as described previously by De Bruine, a P., Dinjens, W. N., van der Linden, E. P., Pijls, M. M., Moerkerk, P. T., & Bosman, F. T. (1993) The American Journal of Pathology, Vol 142(3), pp 773-782, the disclosure of which is incorporated herein in its entirety by reference.
as §1
(§2) In separate studies, GLUTag or NCI-H716 cells were pre-treated for 1 hour with medium alone (1% DMSO, negative control), PD98059 (50 μM; Sigma Chemical Co.), H89 (10 μM; Santa Cruz) followed by treatment with oleoyl-LPI (20 μM), OEA (10 μM), AR231453(1 μM), PMA (10 μM) or forskolin (10 μM, positive control) in the presence of inhibitors, as appropriate, for about 2 h. Medium GLP-1 secretion was calculated as total GLP-1 content of medium normalised for the basal secretion of the control.
(§3) In order to investigate the role of different LPI species in enteroendocrine cells, murine (Glutag) and human (NCI-H716) L-cells were stimulated with the following different species of LPI: Arachidonyl-LPI, Stearoyl-LPI, Heptadecenoyl-LPI and oleoyl-LPI, as well as with OEA and LPC. Experiments were performed in duplicate, n=4 and the level of total GLP-1 was measured by ELISA.

CREB = CREB phosphorylation by Western blot; assay type: cell-based; settings: H89 10 μM pre-treatment or oleoyl-LPI in control cells
Protocol: When cell cultures reached 80-90%, media were removed and cells were washed twice with 1×PBS. The cells were lysed in 150 μl (for one well of a 6 well plate) of Triton X-100 lysis buffer, containing phosphatase inhibitor cocktail (1:1000) (Sigma Aldrich, UK) and protease inhibitor (1:1000, Sigma Aldrich, UK). Cells were detached with scrapers and lysate were collected and centrifuged at 10,000 rpm, 4° C. for 5 minutes. The supernatant was then transferred to a 1.5 ml microcentrifuge tube and used for protein quantification. Cell lysates were stored at −20° C. for longer storage. All lysates were prepared on ice.
Non-specific antibody binding was prevented by incubating the nitrocellulose membrane in 5% milk in PBS-0.05% Tween-20 (v/v) for 30 minutes on a rotating plate. The membrane was then washed in PBS-0.05% Tween-20 (v/v) and then incubated with the primary antibody diluted in PBS-0.05% Tween-20 (v/v) on a rotating plate overnight at 4° C. After 24 hours, the membrane was washed 5× for 5 minutes with PBS-0.05% Tween-20 (v/v), and then incubated on a rotating plate with the appropriate secondary antibody for 1 hour at room temperature. […]

Glutag cells = assay: GLP-1 secretion by Glutag cells; assay type: cell-based, murine; settings: Glutag cells, inhibitor 1 hour before oleoyl-LPI (PD98059 50 μM; H89 10 μM)
Protocol: Glutag cells were maintained in low glucose DMEM (Sigma) (1 g/L) containing 2.0 mM L-glutamine, 1.0 mM sodium pyruvate and supplemented with 10% FBS, 100 IU/ml penicillin, 100 μg/ml streptomycin at a 37° C. and 5% CO2.
as §1, §2, §3

EC50 [2]	EC50 (human GPR119)	Compound	GLP-1 secretion ([1]; 5 mM glucose, 50 μM, 2 hours, percentage of vehicle control)	GLP-1 secretion, dose response ([1]; 10 mM glucose)	oleoyl-LPI induced GLP-1 secretion with inhibitor pre-treatment (NCI-H716 cells)	phosphorylation of CREB (CREB)	oleoyl-LPI induced GLP-1 secretion with inhibitor pre-treatment (Glutag cells)
30.7 µM	0.422 µM	CCCCCCCC/C=C\CCCCCCCC(=O)NCCO [OEA, Oleoylethanolamide]	178±15%	dose-dependently stimulate GLP-1 secretion in similar manner of oleoyl-LPI			
		O=S(=O)(NCCNC/C=C/c1ccc(Br)cc1)c1cccc2cnccc12 [H89]			observable reduction in GLP-1 secretion	inhibited	observable reduction in GLP-1 secretion
